One data set deals with MEC1. As to the kind of experiment: Viability test (CellTiter-Blue/EZ4U) on MEC1 cells, 48 h. Type of data set: cell-based, human. The note with it: Homo sapiens, MEC1, 48 h, 48 h incubation; nd = no significant cytotoxic activity up to 100 μM. Here is the method:
(§1) JURKAT and CCRF-CEM (T-cell acute lymphoblastic leukemia), HL60 and K562 representing acute and chronic myeloid leukemia, respectively, the chronic lymphocytic leukemia cell line MEC-1, and the diffuse large B-cell lymphoma cell line U-2940 were cultured in Gibco RPMI 1640+GlutaMAX (Life Technologies, Carlsbad, Calif., USA) supplemented with 10% fetal bovine serum gold (FBS gold; PAA Laboratories, Pasching, Austria) and 1% PenStrep (100 U/ml penicillin and 100 μg/ml streptomycin; PAA Laboratories), and maintained at 37° C. in humidified atmosphere with 5% CO2. The diffuse large B-cell lymphoma cell line OCI-LY7 was cultured in Gibco IMDM+GlutaMAX and 25 mM HEPES (Life Technologies) containing 20% FBS gold and 1% PenStrep.
(§2) All experiments with hematological cell lines were done using phenol red-free RPMI 1640+L-glutamine (PAA Laboratories) supplemented with 1% PenStrep and 10% FBS gold, except experiments with OCI-Ly7 which were carried out in Gibco IMEM+GlutaMAX and 25 mM HEPES containing 20% FBS gold and 1% PenStrep. Cells were incubated in triplicates with increasing concentrations of the compounds for 48 h, changes in viability were determined using the cell proliferation and cytotoxicity assays EZ4U (Biomedica Group, Austria) and CellTiter-Blue Cell Viability Assay (Promega, Madison, Wis., USA) following instructions of the manufacturers. IC50 values were calculated from two independent experiments using GraphPad Prism 5 software.
(§3) Initially, compounds were biologically tested in six concentration steps (0.1 μM; 1 μM; 5 μM; 10 μM; 50 μM; and 100 μM) using the CellTiter-Blue Cell Viability Assay (Promega, Madison, Wis., USA) and an incubation time of 48 hours. […] IC50 values were calculated from at least two independent experiments with 3 replicates each. In order to evaluate the biologic activity of the new compounds, cytotoxicity was compared to that of fludarabine, an already approved drug for the treatment of various B-cell malignancies. […] Differences in IC50 values for the different cell types can be explained by the biological and genetic particularities of each subtype of B-cell Non-Hodgkin lymphoma (Stacchini A et al. Leukemia Res 1999, 23, 127-136; Sambade C et al. Int J Cancer 2006, 118, 555-563; Chang H et al. Leukemia lymphoma 1995, 19, 165-171; Tweeddale M E et al. Blood 1987, 69, 1307-1314; Tweeddale M et al. Blood 1989, 74, 572-578).
(Resazurin is reduced to fluorescent resorufin, in cell work by metabolically active cells.)

A further data set relates to U-2940. As to the kind of experiment: Viability test on U-2940 cells, 48 h. Type of data set: cell-based, human. As to conditions: Homo sapiens, U-2940, 48 h, 48 h incubation; nd = no significant cytotoxic activity up to 100 μM. Here is the method: as §1, §2, §3
The test system of the next data set is M2-10B4. Kind of data set: Viability test on mouse fibroblast cell line M2-10B4, 48 h. Type of data set: cell-based. The note with it: for IC50: Mus musculus, M210B4, 48 h, 48 h incubation, mouse fibroblast cell line. The method, then:
as §2
Structurally seen, the small molecule compound 1 represents a typical chalcone scaffold. It is characterized by an ortho-ethoxy-substituted phenyl part as ring A and a 2-naphthyl moiety symbolizing ring B. The focus of the present study was to guide the systematic identification of a growth inhibitor with specificity to neoplastic cells, as cytotoxicity towards healthy cells is mostly associated with adverse effects, which can be related to morbidity and mortality of the patient (Milligan D W et al. Brit J Haematol 2006, 135, 450-474). To discriminate in vitro between structural elements necessary for potent cytotoxicity towards tumor cells which, at the same time, clearly show less activity on normal cells, the compounds were additionally tested on the murine bone marrow fibroblast cell line M2-10B4. This cell line is regularly used as feeder layer when cultured with patient cells providing additional support and survival signals in particular in drug screens (Kurtova A V et al. Blood 2009, 114, 4441-4450).
as §3

In another data set the test system is OCI-Ly7. As to the kind of experiment: Viability test on OCI-Ly7 cells, 48 h. Type of data set: cell-based, human. As to conditions: Homo sapiens, OCI-Ly7, 48 h, 48 h incubation; nd = no significant cytotoxic activity up to 100 μM. The method, then: as §1, §2, §3

`COc1ccccc1C(=O)/C=C/c1ccc2ccccc2c1` [Compound 2, 1-(2-Methoxyphenyl)-3-(2-naphthyl)-2-propen-1-one]: the IC50 in the data set with MEC1 worked out at 430 nM; in the data set on U-2940, 4.09 µM; in the data set with M2-10B4 it was 41.8 µM; in the data set with OCI-Ly7, 460 nM.
Take `CCCOc1ccccc1C(=O)/C=C/c1ccc2ccccc2c1` [Compound 3, 3-(2-Naphthyl)-1-(2-propoxyphenyl)-2-propen-1-one]: the half-maximal inhibitory concentration (IC50) in the data set with MEC1 was 130 nM; with U-2940, 5.31 µM; in the data set with M2-10B4, above 100 µM; in the data set with OCI-Ly7, 100 nM.
Regarding `CCCCOc1ccccc1C(=O)/C=C/c1ccc2ccccc2c1` [Compound 4, 1-(2-Butoxyphenyl)-3-(2-naphthyl)-2-propen-1-one], the IC50 in the data set with MEC1 was 700 nM; with U-2940, 5.31 µM; in the data set with M2-10B4, above 100 µM; with OCI-Ly7, 120 nM.
In the same order, the values of `Cc1ccccc1C(=O)/C=C/c1ccc2ccccc2c1` [Compound 6, 1-(2-Methylphenyl)-3-(2-naphthyl)-2-propen-1-one] are 6360 nM, 10.3 µM, 72 µM and 4920 nM.
As for `CCOc1ccccc1C(=O)/C=C/c1ccc2cc(OC)ccc2c1` [Compound 7, 1-(2-Ethoxyphenyl)-3-(6-methoxy-2-naphthyl)-2-propen-1-one], the IC50 is 7160 nM in the data set on MEC1, 24.7 µM with U-2940, above 100 µM with M2-10B4 and 1010 nM in the data set on OCI-Ly7. Besides, the “cytotoxic potential on M2-10B4 (in words)” value in the data set on M2-10B4 (mouse fibroblasts) is recorded as “no cytotoxic potential”.
On to `CCOc1cccc(C(=O)/C=C/c2ccc3ccccc3c2)c1` [Compound 16, 3-(2-Napthyl)-1-(3-ethoxyphenyl)-2-propen-1-one], for which the melting point is 97 to 100 °C. This molecule also yielded an IC50 with MEC1 of 2850 nM. In the data set with U-2940, the IC50 worked out at 16.2 µM. In the data set with OCI-Ly7, this molecule gave an IC50 of 1760 nM.
`CCOc1ccc(C(=O)/C=C/c2ccc3ccccc3c2)cc1` [Compound 17, 3-(2-Napthyl)-1-(4-ethoxyphenyl)-2-propen-1-one]: the melting point lay in the range of 159 to 161 °C.
Regarding `CCOc1cccc(C(=O)/C=C/c2csc3ccccc23)c1` [Compound 18, 3-(1-Benzothien-3-yl)-1-(3-ethoxyphenyl)-2-propen-1-one], the melting point fell in the range of 103 to 106 °C. Also, 2210 nM corresponded to half-maximal inhibition in the data set on MEC1 (IC50). In the data set with U-2940, this molecule came in with an IC50 of 7.59 µM. Further, half-maximal inhibition in the data set on OCI-Ly7 (IC50) was put at 1670 nM.
With `CCOc1ccc(C(=O)/C=C/c2csc3ccccc23)cc1` [Compound 19, 3-(1-Benzothien-3-yl)-1-(4-ethoxyphenyl)-2-propen-1-one], the melting point was in the range of 129 to 130 °C. In the data set with MEC1, this molecule registered a 50% inhibitory concentration (IC50) of 7500 nM. Besides, the IC50 in the data set with U-2940 was determined as 14.6 µM. In the data set on OCI-Ly7, this molecule displayed an IC50 of 4770 nM.
`CCOc1cccc(C(=O)/C=C/c2cc3ccccc3[nH]2)c1` [Compound 20, 1-(3-Ethoxyphenyl)-3-(1H-indole-2-yl)-2-propen-1-one] came in with a melting point of 156 to 158 °C. The molecule further yielded an IC50 with MEC1 of 3330 nM. In the data set with OCI-Ly7, this molecule had an IC50 of 4830 nM.
`CCOc1ccc(C(=O)/C=C/c2cc3ccccc3[nH]2)cc1` [Compound 21, 1-(4-Ethoxyphenyl)-3-(1H-indole-2-yl)-2-propen-1-one]: the melting point was in the range of 178 to 181 °C. The molecule also came in with an IC50 in the data set on OCI-Ly7 of 25300 nM.
`CCOc1ccccc1C(=O)/C=C/c1ccc2[nH]ccc2c1` [Compound 22, (E)-1-(2-Ethoxyphenyl)-3-(1H-indol-5-yl)-2-propen-1-one]: the melting point lay in the range of 151 to 153 °C. The IC50 in the data set on MEC1 came out at 50 nM. In addition, half-maximal inhibition in the data set with U-2940 (IC50) required 1.71 µM. For the same molecule, in the data set on OCI-Ly7, the IC50 was determined as 30 nM.
Regarding `CCOc1cccc(C(=O)/C=C/c2ccc3[nH]ccc3c2)c1` [Compound 23, (E)-1-(3-Ethoxyphenyl)-3-(1H-indol-5-yl)-2-propen-1-one], the melting point lay in the range of 121 to 123 °C. Moreover, in the data set on MEC1, the concentration for half-maximal inhibition (IC50) amounted to 2600 nM. Further, the IC50 in the data set with U-2940 was 10 µM. In the data set on OCI-Ly7, the IC50 amounted to 1470 nM.
Regarding `CCOc1ccc(C(=O)/C=C/c2ccc3[nH]ccc3c2)cc1` [Compound 24, (E)-1-(4-Ethoxyphenyl)-3-(1H-indol-5-yl)-2-propen-1-one], the melting point was 171 to 173 °C. In addition, inhibition in the data set on MEC1 was half-maximal at 26600 nM (IC50). In the data set with U-2940, this molecule came in with a 50% inhibitory concentration (IC50) of 50 µM. In addition, the IC50 in the data set with OCI-Ly7 is 15900 nM.
`CCCOc1ccccc1C(=O)/C=C/c1ccc2[nH]ccc2c1` [Compound 25, (E)-3-(1H-indol-5-yl)-1-(2-propoxyphenyl)-2-propen-1-one]: the melting point lay in the range of 114 to 116 °C. This molecule gave an IC50 in the data set on MEC1 of 140 nM. In the data set on U-2940, the IC50 amounted to 7.1 µM. In the data set on OCI-Ly7, it took 120 nM to reach half-maximal inhibition (IC50).
Molecule `CCCOc1ccccc1C(=O)/C=C/c1cc2ccccc2[nH]1` [Compound 26, (E)-3-(1H-indol-2-yl)-1-(2-propoxyphenyl)-2-propen-1-one] returned a melting point of 112 to 114 °C. In the data set with MEC1, this molecule returned an IC50 of 40 nM. In addition, the IC50 in the data set with U-2940 is 10.1 µM. This molecule also displayed an IC50 in the data set with OCI-Ly7 of 80 nM.
Molecule `CCOc1ccccc1C(=O)/C=C/c1cc2ccccc2s1` [Compound 27, (E)-3-(1-Benzothiophen-2-yl)-1-(2-ethoxyphenyl)-2-propen-1-one] had a melting point of 95 to 98 °C. Moreover, the IC50 in the data set with MEC1 turned out to be 60 nM. The IC50 in the data set with U-2940 came out at 2.31 µM. Besides, the 50% inhibitory concentration (IC50) with OCI-Ly7 came to 70 nM.
For `CCOc1cccc(C(=O)/C=C/c2ccc3sccc3c2)c1` [Compound 28], in that order: 98 to 99 °C, 5480 nM, 12.9 µM and 4780 nM.
On to `CCOc1ccc(C(=O)/C=C/c2ccc3sccc3c2)cc1` [Compound 29], for which the melting point lay within 149 to 151 °C. The same molecule returned an IC50 with MEC1 of 231000 nM.
Regarding `CCOc1ccccc1C(=O)/C=C/c1ccc(-c2cccs2)s1` [Compound 30, (E)-3-(2,2′-bithiophen-5-yl)-1-(2-ethoxyphenyl)-2-propen-1-one], the IC50 in the data set with MEC1 is 20 nM; with U-2940, 3.13 µM; with OCI-Ly7, 20 nM.
Regarding `CCOc1ccccc1C(=O)/C=C/c1cc2ccccc2o1` [Compound 31, (E)-3-(1-Benzofuran-2-yl)-1-(2-ethoxyphenyl)-2-propen-1-one], the melting point was in the range of 79 to 81 °C. In the data set with MEC1, this molecule yielded an IC50 of 200 nM. This molecule also displayed an IC50 in the data set with U-2940 of 7.1 µM. The midpoint of inhibition with OCI-Ly7, the IC50, lay at 50 nM.
For `CCOc1cccc(C(=O)/C=C/c2cc3ccccc3o2)c1` [Compound 32, (E)-3-(1-Benzofuran-2-yl)-1-(3-ethoxyphenyl)-2-propen-1-one], the melting point was in the range of 127 to 129 °C. The same molecule returned an IC50 with MEC1 of 6910 nM. This molecule displayed an IC50 in the data set on U-2940 of 44.3 µM. This molecule also returned an IC50 in the data set with OCI-Ly7 of 16700 nM.
`CCOc1ccc(C(=O)/C=C/c2cc3ccccc3o2)cc1` [Compound 33, (E)-3-(1-Benzofuran-2-yl)-1-(4-ethoxyphenyl)-2-propen-1-one] had a melting point of 100 to 101 °C. The molecule also displayed an IC50 in the data set with MEC1 of 38800 nM. In addition, the IC50 with U-2940 stood at 42.2 µM. The molecule further showed an IC50 in the data set with OCI-Ly7 of 19500 nM.
As to `CCOc1cccc(C(=O)/C=C/c2ccc3c(c2)OCO3)c1` [Compound 34, (E)-3-(1,3-benzodioxol-5-yl)-1-(3-ethoxyphenyl)prop-2-en-1-one], the figures for the IC50 in the data set with MEC1, with U-2940 and in the data set on OCI-Ly7 were 8730 nM, 18.8 µM and 6350 nM, respectively.

Usually IC50 stands for the concentration at which inhibition is half-maximal. Read a low IC50 as greater potency. The melting point is the temperature of the solid-liquid transition.

Source of the values: patent US10280156B2, “Heteroaromatic chalcone derivatives and their medical use” (Medizinische Universität Wien, priority 2014, dated 2019).
